Results on one molecule are retold here after publication PMC9268243, “Metabolic Behaviors of Aconitum Alkaloids in Different Concentrations of Aconiti Lateralis Radix Praeparata and Effects of Aconitine in Healthy Human and Long QT Syndrome Cardiomyocytes” (Molecules, 2022).

SMILES strings stand for the structures.

In the data set the test system is LQT syndrome hiPSC-CMs. Kind of data set: Impedance beating recordings (cell index, beat rate, amplitude), LQT syndrome hiPSC-CMs. It is filed as cell-based, human. Here is the method:
HiPSCs derived from healthy controls (Cat: NC20010002; Lot.HJ210577NC22), or patients (Cat. NC20300002; Lot. CP210578NC04) diagnosed with LQT syndrome was maintained in HELP4004 (HELP, Nanjing, China) medium on Matrigel-coated (BD Bio science, San Jose, CA, USA) plates at 37 °C; with 5% CO2 (v/v).
The cardiomyocytes were seeded on Nanion CardioExcyte 96 Sensor Plates (NSP-96, Nanion Technologies, Munich, Germany) after 0.1% gelatin coating for 1 h. The initial volume was 200 μL per well and contained approximately […]. After seeding, the NSP-96 and CardioExcyte 96 were returned to the incubator. All cells were replaced with fresh medium 200 μL per well every 48 h and tested after 168 h. Cellular index, beat rate, base impedance and beat amplitude were monitored in this experiment.
Isoproterenol, nifedipine, and AC were purchased from Sigma-Aldrich, which were resolved in DMSO (Sigma-Aldrich, D2650). Drug compounds final concentration were AC (0.05, 0.5,5 μM), nifedipine (1 μM), isoproterenol (3 μM), respectively. Dilutions were prepared within 60 min of treatment. All the compound solutions were subjected to regular 10 min ultrasound and oscillations to ensure that compounds were completely dissolved. Equal amounts of DMSO (0.1%) were used as the vehicle controls.

Where [1] appears, read: LQT hiPSC-CMs, 0.05 μM, versus control group.

For the molecule `CCN1C[C@]2(COC)[C@H](O)C[C@H](OC)[C@@]34[C@@H]5C[C@@]6(O)[C@H](OC(=O)c7ccccc7)[C@@H]5[C@@](OC(C)=O)([C@@H]([C@H](OC)[C@H]23)[C@@H]14)[C@@H](O)[C@@H]6OC` [AC, aconitine], under setting [1], the contraction force result is recorded as “lower contraction force” and the contraction frequency entry was “higher contraction frequency”. In addition, where the note is “LQT hiPSC-CMs, 0.5 μM”, the cell frequency entry is given as “significantly increased” and the contractility result is reported as “significantly increased”. Moreover, the cell contractility result (LQT hiPSC-CMs, 5 μM, very weak within 30 h after treatment) is on record as “decreased to zero”. Besides, where the note is “LQT hiPSC-CMs, three concentrations (0.05, 0.5, 5 μM), 48 h observation period”, the myocardial cell death entry is given as “None of the three concentrations caused significant myocardial cell death”. Also, the cell index result (LQTS hiPSC-CMs, 5.0 μM, between 5–30 min) is listed as “decreased the cell index”.
